Data on twelve compounds can be found in US7091211B2, “Cyclopentyl modulators of chemokine receptor activity” (Merck & Co., Inc., priority 2003, dated 2006).

Where a name gives a salt, the structure may show the parent alone. Some results are limits rather than exact numbers.

The target in the experiment is T1, CCR3 (Homo sapiens, UniProt P51677).
T1 sequence (P51677 1-355): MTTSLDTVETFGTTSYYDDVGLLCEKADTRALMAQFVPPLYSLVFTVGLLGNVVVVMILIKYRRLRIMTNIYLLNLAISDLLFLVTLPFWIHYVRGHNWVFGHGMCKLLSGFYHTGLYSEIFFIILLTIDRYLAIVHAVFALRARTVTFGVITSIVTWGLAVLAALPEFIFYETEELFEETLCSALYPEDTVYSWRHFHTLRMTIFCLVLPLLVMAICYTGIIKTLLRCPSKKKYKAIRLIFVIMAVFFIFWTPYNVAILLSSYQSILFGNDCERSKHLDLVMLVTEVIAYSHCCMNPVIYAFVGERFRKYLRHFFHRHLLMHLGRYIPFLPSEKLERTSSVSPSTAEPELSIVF
The experiment can be described thus: Assay for determining CCR3 binding activity. As to conditions: assay disclosed in U.S. Pat. No. 6,303,593 or 6,538,002. The source says: Cell lines for expressing the receptor of interest include those naturally expressing the receptor, such as […] or THP-1, or a cell engineered to express a recombinant receptor, such as CHO, RBL-2H3, or HEK-293. For example, a CCR3 transfected AML14.3D10 cell line has been placed on restricted deposit with American Type Culture Collection as ATCC No. CRL-12079.
The CCR3 binding activity of representative compounds of the present invention can be determined via the assay disclosed in U.S. Pat. No. 6,303,593 or U.S. Pat. No. 6,538,002.
In the case of `CCc1nn(CC)c2c1CCC21CCN(C[C@H]2C[C@H](N(C)[C@@H](C(=O)O)C(C)C)C[C@@H]2c2cccc(F)c2)CC1` [Example 1, N-Methyl-N-(1-(R)-3-(S)-((1,3-diethyl-4,5-dihydrospiro[cyclopentapyrazole-6(1H),4′-piperidin-1′-yl])methyl)-4-(S)-(3-fluorophenyl)cyclopent-1-yl)-(R)-valine trihydrochloride salt], the IC50 is less than 10 µM. The result for `CCc1c2c(nn1CC)C1(CC2)CCN(C[C@H]2C[C@H](N(C)[C@@H](C(=O)O)C(C)C)C[C@@H]2c2cccc(F)c2)CC1` [Example 2, N-Methyl-N-(1-(R)-3-(S)-((2,3-diethyl-4,5-dihydrospiro[cyclopentapyrazole-6(2H),4′-piperidin-1′-yl])methyl)-4-(S)-(3-fluorophenyl)cyclopent-1-yl)-(R)-valine trihydrochloride salt] reads less than 10 µM. In the case of `CCc1nn(C)c2c1CCC21CCN(C[C@H]2C[C@H](N(C)[C@@H](C(=O)O)C(C)C)C[C@@H]2c2cccc(F)c2)CC1` [Example 3, N-Methyl-N-(1-(R)-3-(S)-((3-ethyl-1-methyl-4,5-dihydrospiro[cyclopentapyrazole-6(1H),4′-piperidin-1′-yl])methyl)4-(S)-(3-fluorophenyl)cyclopent-1-yl)-(R)-valine trihydrochloride salt], the IC50 was less than 10 µM. In turn, `CCn1ncc2c1C1(CC2)CCN(C[C@H]2C[C@H](N(C)[C@@H](C(=O)O)C(C)C)C[C@@H]2c2cccc(F)c2)CC1` [Example 6, N-Methyl-N-(1-(R)-3-(S)-((1-ethyl-4,5-dihydrospiro[cyclopentapyrazole-6(1H),4′-piperidin-1′-yl])methyl)-4-(S)-(3-fluorophenyl)cyclopent-1-yl)-(R)-valine trihydrochloride salt] gave an IC50 of less than 10 µM. The result for `CCc1onc2c1CCC21CCN(C[C@H]2C[C@H](N(C)[C@@H](C(=O)O)C(C)C)C[C@@H]2c2cccc(F)c2)CC1` [Example 12, N-Methyl-N-(1-(R)-3-(S)-((3-ethyl-4,5-dihydrospiro[6H-cyclopent[c]isoxazole-6,4′-piperidin-1′-yl])methyl)-4-(S)-(3-fluorophenyl)cyclopent-1-yl)-(R)-valine trihydrochloride salt] reads less than 10 µM; that for `CCn1cc2c(n1)CCC21CCN(C[C@H]2C[C@H](N(C)[C@@H](C(=O)O)C(C)C)C[C@@H]2c2cccc(F)c2)CC1` [Example 15, N-Methyl-N-(1-(R)-3-(S)-((2-ethyl-5,6 dihydrospiro[cyclopentapyrazole-4(2H),4′-piperidin-1′-yl])methyl)-4-(S)-(3-fluorophenyl)cyclopent-1-yl)-(R)-valine trihydrochloride salt], less than 10 µM. With `CCc1nn(CC)c2c1C1(CC2)CCN(C[C@H]2C[C@H](N(C)[C@@H](C(=O)O)C(C)C)C[C@@H]2c2cccc(F)c2)CC1` [Example 16, N-Methyl-N-(1-(R)-3-(S)-((1,3-diethyl-5,6 dihydrospiro[cyclopentapyrazole-4(1H),4′-piperidin-1′-yl])methyl)-4-(S)-(3-fluorophenyl)cyclopent-1-yl)-(R)-valine trihydrochloride salt], the IC50 was less than 10 µM.

On to `CCc1nn(CC)c2c1CCC21CCN(C[C@H]2C[C@H](N(CC)[C@@H](C(=O)O)C(C)C)C[C@@H]2c2cccc(F)c2)CC1` [Example 18, N-Ethyl-N-(1-(R)-3-(S)-((1,3-diethyl-4,5-dihydrospiro[cyclopentapyrazole-6(1H),4′-piperidin-1′-yl])methyl)-4-(S)-(3-fluorophenyl)cyclopent-1-yl)-(R)-valine trihydrochloride salt], for which the IC50 is less than 10 µM. The result for `CCc1nn(CC)c2c1CCC21CCN(C[C@H]2C[C@H](N(C)[C@@H](C(=O)O)C(C)(C)C)C[C@@H]2c2cccc(F)c2)CC1` [Example 20, N-Methyl-N-(1-(R)-3-(S)-((1,3-diethyl-4,5-dihydrospiro[cyclopentapyrazole-6(1H),4′-piperidin-1′-yl])methyl)-4-(S)-(3-fluorophenyl)cyclopent-1-yl)-(R)-t-butylglycine trihydrochloride salt] reads less than 10 µM; that for `CCc1nn(CC)c2c1CCC21CCN(C[C@H]2C[C@H](N(C)[C@@H](C(=O)O)C(C)C)C[C@@H]2c2ccc(F)c(F)c2)CC1` [Example 25, N-Methyl-N-(1-(R)-3-(S)-((1,3-diethyl-4,5-dihydrospiro[cyclopentapyrazole-6(1H),4′-piperidin-1′-yl])methyl)-4-(S)-(3,4-difluorophenyl)cyclopent-1-yl)-(R)-valine trihydrochloride salt], less than 10 µM; that for `CCc1nn(CC)c2c1CCC21CCN(C[C@H]2C[C@H]([C@H](NC(C)(C)CC)C(=O)O)C[C@@H]2c2cccc(F)c2)CC1` [Example 45, 2-(S)-(1-(R)-3-(S)-((1,3-Diethyl-4,5-dihydrospiro[cyclopentapyrazole-6(1H),4′-piperidin-1′-yl])methyl)-4-(S)-(3-fluorophenyl)cyclopent-1-yl)-2-(1,1-dimethylprop-1-ylamino)acetic acid trihydrochloride salt], less than 10 µM. The result for `CCc1nn(CC)c2c1CCC21CCN(C[C@H]2C[C@H]([C@@H](C(=O)O)N(C)C(C)(C)CC)C[C@@H]2c2cccc(F)c2)CC1` [Example 46, 2-(S)-(1-(R)-3-(S)-((1,3-Diethyl-4,5-dihydrospiro[cyclopentapyrazole-6(1H),4′-piperidin-1′-yl])methyl)-4-(S)-(3-fluorophenyl)cyclopent-1-yl)-2-((1,1-dimethylprop-1-yl)methylamino)acetic acid trihydrochloride salt] reads less than 10 µM.
